Results as given in the supplement of paper PMC10307832.

Assays:
Assay in all cases: relative viability (nuclei count vs DMSO), 5 days (fraction); higher = more cells survive
Pictilisib + Trametinib = compound: CS(=O)(=O)N1CCN(Cc2cc3nc(-c4cccc5[nH]ncc45)nc(N4CCOCC4)c3s2)CC1 [Pictilisib] + CC(=O)Nc1cccc(-n2c(=O)n(C3CC3)c(=O)c3c(Nc4ccc(I)cc4F)n(C)c(=O)c(C)c32)c1 [Trametinib] (partner 0.02 µM)
Procedure, shortened: (§1)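 Five library-drug doses in √10 steps were combined with a fixed anchor-drug dose, or a single drug was given alone, by pin tool to lung cancer cell lines in 1536-well plates the day after seeding. Nuclei were stained and counted after 5 days. Relative viability is the nuclei count in treated wells over that in vehicle wells, taken as the median of duplicate plates.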

MK-2206 + Pictilisib = compound: NC1(c2ccc(-c3nc4ccn5c(=O)[nH]nc5c4cc3-c3ccccc3)cc2)CCC1 [MK-2206] + CS(=O)(=O)N1CCN(Cc2cc3nc(-c4cccc5[nH]ncc45)nc(N4CCOCC4)c3s2)CC1 [Pictilisib] (partner 1 µM)
Procedure, shortened: as §1

Pictilisib + Pemetrexed = compound: CS(=O)(=O)N1CCN(Cc2cc3nc(-c4cccc5[nH]ncc45)nc(N4CCOCC4)c3s2)CC1 [Pictilisib] + Nc1nc2[nH]cc(CCc3ccc(C(=O)N[C@@H](CCC(=O)O)C(=O)O)cc3)c2c(=O)[nH]1 [Pemetrexed] (partner 0.2 µM)
Procedure, shortened: as §1

MK-2206 + Palbociclib = compound: NC1(c2ccc(-c3nc4ccn5c(=O)[nH]nc5c4cc3-c3ccccc3)cc2)CCC1 [MK-2206] + CC(=O)c1c(C)c2cnc(Nc3ccc(N4CCNCC4)cn3)nc2n(C2CCCC2)c1=O [Palbociclib] (partner 0.5 µM)
Procedure, shortened: as §1

MK-2206 + Bortezomib = compound: NC1(c2ccc(-c3nc4ccn5c(=O)[nH]nc5c4cc3-c3ccccc3)cc2)CCC1 [MK-2206] + CC(C)C[C@H](NC(=O)[C@H](Cc1ccccc1)NC(=O)c1cnccn1)B(O)O [Bortezomib] (partner 0.002 µM)
Procedure, shortened: as §1

Cell Line | relative viability (Pictilisib + Trametinib; first compound 0.02 µM) | relative viability (Pictilisib + Trametinib; first compound 0.06325 µM) | relative viability (Pictilisib + Trametinib; first compound 0.6325 µM) | relative viability (Pictilisib + Trametinib; first compound 2 µM) | relative viability (MK-2206 + Pictilisib; first compound 0.01 µM) | relative viability (MK-2206 + Pictilisib; first compound 0.03162 µM) | relative viability (MK-2206 + Pictilisib; first compound 0.3162 µM) | relative viability (MK-2206 + Pictilisib; first compound 1 µM) | relative viability (Pictilisib + Pemetrexed; first compound 0.02 µM) | relative viability (Pictilisib + Pemetrexed; first compound 0.06325 µM) | relative viability (Pictilisib + Pemetrexed; first compound 0.6325 µM) | relative viability (Pictilisib + Pemetrexed; first compound 2 µM) | relative viability (MK-2206 + Palbociclib; first compound 0.01 µM) | relative viability (MK-2206 + Palbociclib; first compound 0.03162 µM) | relative viability (MK-2206 + Palbociclib; first compound 0.3162 µM) | relative viability (MK-2206 + Palbociclib; first compound 1 µM) | relative viability (MK-2206 + Bortezomib; first compound 0.01 µM) | relative viability (MK-2206 + Bortezomib; first compound 0.03162 µM) | relative viability (MK-2206 + Bortezomib; first compound 0.3162 µM) | relative viability (MK-2206 + Bortezomib; first compound 1 µM)
201T | 0.737 | 0.686 | 0.659 | 0.585 | 0.669 | 0.696 | 0.651 | 0.648 | 0.301 | 0.352 | 0.289 | 0.276 | 0.356 | 0.344 | 0.342 | 0.332 | 1.06 | 1.13 | 1.17 | 1.16
A549 | – | – | – | – | 0.496 | 0.494 | 0.394 | 0.304 | – | – | – | – | – | – | – | – | – | – | – | –
A-427 | 0.733 | 0.716 | 0.505 | 0.287 | 0.766 | 0.676 | 0.732 | 0.717 | 0.955 | 0.984 | 0.969 | 0.803 | 0.512 | 0.585 | 0.507 | 0.524 | 0.912 | 1 | 1.02 | 0.931
ABC-1 | – | – | – | – | 0.629 | 0.728 | 0.721 | 0.701 | – | – | – | – | 0.809 | 0.669 | 0.641 | 0.605 | 0.302 | 0.219 | 0.43 | 0.352
BEN | 1.02 | 0.953 | 0.962 | 0.636 | 0.573 | 0.621 | 0.63 | 0.571 | 0.809 | 0.858 | 0.81 | 0.546 | 0.493 | 0.516 | 0.522 | 0.498 | 0.775 | 0.821 | 1 | 0.528
CAL-12T | 0.332 | 0.331 | 0.221 | 0.178 | 0.58 | 0.455 | 0.465 | 0.229 | 1.31 | 1.4 | 1.18 | 1.04 | 0.383 | 0.277 | 0.543 | 0.411 | 0.971 | 0.928 | 0.947 | 0.963
COR-L23 | 0.596 | 0.582 | 0.384 | 0.285 | 0.816 | 0.834 | 0.741 | 0.686 | 0.187 | 0.185 | 0.199 | 0.19 | 0.277 | 0.312 | 0.268 | 0.291 | 0.913 | 1 | 1.18 | 0.989
COR-L 105 | 0.382 | 0.4 | 0.432 | 0.38 | 0.381 | 0.414 | 0.408 | 0.425 | 1.19 | 1.04 | 1.22 | 0.885 | 0.428 | 0.436 | 0.441 | 0.408 | 0.766 | 0.725 | 0.997 | 0.843
Calu-6 | – | – | – | – | 0.93 | 0.895 | 0.86 | 0.873 | – | – | – | – | – | – | – | – | 0.991 | 1.08 | 1.01 | 1.15
ChaGo-K-1 | 0.813 | 0.873 | 0.79 | 0.631 | 0.914 | 0.981 | 0.692 | 0.401 | 0.265 | 0.268 | 0.231 | 0.237 | 0.961 | 0.98 | 0.937 | 0.932 | 1.09 | 0.993 | 0.924 | 0.763
EBC-1 | – | – | – | – | 0.459 | 0.314 | 0.176 | 0.164 | – | – | – | – | – | – | – | – | 0.603 | 0.47 | 0.345 | 0.197
EKVX | 0.424 | 0.287 | 0.268 | 0.193 | 0.415 | 0.447 | 0.424 | 0.445 | 0.371 | 0.354 | 0.366 | 0.221 | 0.542 | 0.458 | 0.363 | 0.352 | 0.996 | 1.21 | 0.705 | 0.649
EMC-BAC-2 | 0.863 | 0.869 | 0.685 | 0.513 | 0.54 | 0.574 | 0.515 | 0.441 | 0.45 | 0.451 | 0.424 | 0.41 | 0.511 | 0.517 | 0.462 | 0.456 | 1.08 | 1.04 | 1.06 | 0.865
EPLC-272H | 0.275 | 0.278 | 0.212 | 0.126 | 0.292 | 0.333 | – | 0.336 | 0.297 | 0.342 | 0.231 | 0.185 | 0.32 | 0.287 | 0.315 | 0.328 | 1.05 | 1.06 | – | 1.01
H3255 | 0.611 | 0.556 | 0.394 | 0.243 | 0.477 | 0.45 | 0.399 | 0.384 | 0.611 | 0.613 | 0.525 | 0.399 | 0.313 | 0.302 | 0.283 | 0.288 | 0.718 | 0.977 | 0.718 | 0.564
HARA | 0.626 | 0.715 | 0.479 | 0.129 | 0.388 | 0.395 | 0.399 | 0.357 | 0.277 | 0.329 | 0.239 | 0.212 | 0.268 | 0.343 | 0.27 | 0.221 | 1.16 | 1.31 | 1.08 | 0.916
HCC-15 | 0.359 | 0.334 | 0.237 | 0.178 | 0.727 | 0.785 | 0.643 | 0.626 | 0.224 | 0.224 | 0.224 | 0.202 | 0.695 | 0.792 | 0.662 | 0.653 | 0.98 | 1.07 | 1 | 0.811
HCC-44 | 0.896 | 1.03 | 1.01 | 0.643 | 0.804 | 0.619 | 0.496 | 0.392 | 0.655 | 0.642 | 0.695 | 0.673 | 0.918 | 0.938 | 0.974 | 0.946 | 0.921 | 0.86 | 0.877 | 0.874
